Laboratory results: patent US11447466B2, “Substituted indole compounds useful as inhibitors of TLR7/8/9” (BRISTOL-MYERS SQUIBB COMPANY, priority 2017, dated 2022)
pIC50: −log10 of the molar value.

Assays:
Format in all cases: cell-based
human TLR8 = target: T1, human TLR8 (Homo sapiens, UniProt Q9NR97); assay: TLR8 inhibition reporter assay (HEK-Blue SEAP reporter, R848 stimulation); conditions: HEK-Blue cells overexpressing human TLR8, SEAP reporter, R848 15.9 μM, 22 hour incubation
T1 construct: host or cells: HEK-Blue cells
T1 sequence (Q9NR97 27-1041): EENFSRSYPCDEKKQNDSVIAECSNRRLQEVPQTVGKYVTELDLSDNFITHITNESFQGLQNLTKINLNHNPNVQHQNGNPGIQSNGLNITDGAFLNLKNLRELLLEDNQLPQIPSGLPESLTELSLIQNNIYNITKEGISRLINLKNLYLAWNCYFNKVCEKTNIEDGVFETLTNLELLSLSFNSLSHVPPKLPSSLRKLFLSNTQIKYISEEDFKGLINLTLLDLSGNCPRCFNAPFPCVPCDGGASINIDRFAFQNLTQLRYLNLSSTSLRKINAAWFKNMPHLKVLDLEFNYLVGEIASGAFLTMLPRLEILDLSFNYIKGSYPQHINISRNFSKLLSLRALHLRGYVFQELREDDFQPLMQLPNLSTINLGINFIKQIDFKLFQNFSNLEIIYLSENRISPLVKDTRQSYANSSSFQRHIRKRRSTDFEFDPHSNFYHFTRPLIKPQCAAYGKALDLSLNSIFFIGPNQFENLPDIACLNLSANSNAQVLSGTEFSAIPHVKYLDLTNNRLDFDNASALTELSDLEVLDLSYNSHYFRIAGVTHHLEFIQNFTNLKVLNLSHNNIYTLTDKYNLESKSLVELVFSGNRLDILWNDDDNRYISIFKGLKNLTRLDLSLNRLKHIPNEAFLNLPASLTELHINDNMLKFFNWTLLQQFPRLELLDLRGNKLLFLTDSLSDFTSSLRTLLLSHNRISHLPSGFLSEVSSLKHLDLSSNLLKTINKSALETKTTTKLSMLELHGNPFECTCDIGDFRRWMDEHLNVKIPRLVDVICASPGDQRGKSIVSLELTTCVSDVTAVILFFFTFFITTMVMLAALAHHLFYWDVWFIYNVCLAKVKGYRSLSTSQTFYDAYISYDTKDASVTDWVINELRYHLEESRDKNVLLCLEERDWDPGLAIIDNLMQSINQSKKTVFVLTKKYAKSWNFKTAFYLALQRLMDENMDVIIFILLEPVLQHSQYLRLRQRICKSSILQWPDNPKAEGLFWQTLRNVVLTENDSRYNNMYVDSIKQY
How it was run: (§1)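 Agonists used: gardiquimod 7.5 μM (TLR7), R848 15.9 μM (TLR8), ODN2006 5 nM (TLR9), added after 30 min room-temperature compound pre-treatment (0.05 nM–50 μM) of receptor-overexpressing HEK-Blue cells. SEAP reporter (NF-κB/AP-1 driven) read after 22 h at 37 °C; inhibition scaled between agonist+DMSO and reference-inhibitor wells.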

human TLR9 = target: T2, human TLR9 (Homo sapiens, UniProt Q9NR96); assay: TLR9 inhibition reporter assay (HEK-Blue SEAP reporter, ODN2006 stimulation); conditions: HEK-Blue cells overexpressing human TLR9, SEAP reporter, ODN2006 5 nM, 22 hour incubation
T2 construct: host or cells: HEK-Blue cells
T2 sequence (Q9NR96 26-1032): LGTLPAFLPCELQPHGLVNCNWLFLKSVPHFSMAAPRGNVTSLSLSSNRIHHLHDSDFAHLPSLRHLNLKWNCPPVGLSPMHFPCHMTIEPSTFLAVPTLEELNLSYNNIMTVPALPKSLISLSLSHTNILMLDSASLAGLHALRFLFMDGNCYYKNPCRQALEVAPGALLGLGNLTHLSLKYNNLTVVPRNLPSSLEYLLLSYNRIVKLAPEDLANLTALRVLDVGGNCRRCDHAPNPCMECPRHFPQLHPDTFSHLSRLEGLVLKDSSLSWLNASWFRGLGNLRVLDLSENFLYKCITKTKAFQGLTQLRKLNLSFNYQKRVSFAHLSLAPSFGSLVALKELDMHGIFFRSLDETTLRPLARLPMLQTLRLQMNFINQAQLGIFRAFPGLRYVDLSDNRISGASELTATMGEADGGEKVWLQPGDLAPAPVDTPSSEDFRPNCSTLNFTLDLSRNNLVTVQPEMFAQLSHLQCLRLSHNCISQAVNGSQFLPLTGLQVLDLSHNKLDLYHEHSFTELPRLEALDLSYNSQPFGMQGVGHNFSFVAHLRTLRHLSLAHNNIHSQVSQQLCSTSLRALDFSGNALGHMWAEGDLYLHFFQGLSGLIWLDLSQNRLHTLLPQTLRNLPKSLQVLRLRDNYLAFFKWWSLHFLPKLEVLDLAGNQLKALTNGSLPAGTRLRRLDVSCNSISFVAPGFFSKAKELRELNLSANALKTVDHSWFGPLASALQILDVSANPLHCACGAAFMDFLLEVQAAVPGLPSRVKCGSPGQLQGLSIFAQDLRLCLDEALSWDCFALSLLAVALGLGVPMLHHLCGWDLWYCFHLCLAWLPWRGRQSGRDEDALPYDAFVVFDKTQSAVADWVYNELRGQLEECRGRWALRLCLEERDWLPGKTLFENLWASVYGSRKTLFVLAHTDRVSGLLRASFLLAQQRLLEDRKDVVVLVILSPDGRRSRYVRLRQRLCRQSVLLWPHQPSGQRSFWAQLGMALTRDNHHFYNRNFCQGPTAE
How it was run: as §1

human TLR7 = target: T3, human TLR7 (Homo sapiens, UniProt Q9NYK1); assay: TLR7 inhibition reporter assay (HEK-Blue SEAP reporter, gardiquimod stimulation); conditions: HEK-Blue cells overexpressing human TLR7, SEAP reporter, gardiquimod 7.5 μM, 22 hour incubation
T3 construct: host or cells: HEK-Blue cells
T3 sequence (Q9NYK1 27-1049): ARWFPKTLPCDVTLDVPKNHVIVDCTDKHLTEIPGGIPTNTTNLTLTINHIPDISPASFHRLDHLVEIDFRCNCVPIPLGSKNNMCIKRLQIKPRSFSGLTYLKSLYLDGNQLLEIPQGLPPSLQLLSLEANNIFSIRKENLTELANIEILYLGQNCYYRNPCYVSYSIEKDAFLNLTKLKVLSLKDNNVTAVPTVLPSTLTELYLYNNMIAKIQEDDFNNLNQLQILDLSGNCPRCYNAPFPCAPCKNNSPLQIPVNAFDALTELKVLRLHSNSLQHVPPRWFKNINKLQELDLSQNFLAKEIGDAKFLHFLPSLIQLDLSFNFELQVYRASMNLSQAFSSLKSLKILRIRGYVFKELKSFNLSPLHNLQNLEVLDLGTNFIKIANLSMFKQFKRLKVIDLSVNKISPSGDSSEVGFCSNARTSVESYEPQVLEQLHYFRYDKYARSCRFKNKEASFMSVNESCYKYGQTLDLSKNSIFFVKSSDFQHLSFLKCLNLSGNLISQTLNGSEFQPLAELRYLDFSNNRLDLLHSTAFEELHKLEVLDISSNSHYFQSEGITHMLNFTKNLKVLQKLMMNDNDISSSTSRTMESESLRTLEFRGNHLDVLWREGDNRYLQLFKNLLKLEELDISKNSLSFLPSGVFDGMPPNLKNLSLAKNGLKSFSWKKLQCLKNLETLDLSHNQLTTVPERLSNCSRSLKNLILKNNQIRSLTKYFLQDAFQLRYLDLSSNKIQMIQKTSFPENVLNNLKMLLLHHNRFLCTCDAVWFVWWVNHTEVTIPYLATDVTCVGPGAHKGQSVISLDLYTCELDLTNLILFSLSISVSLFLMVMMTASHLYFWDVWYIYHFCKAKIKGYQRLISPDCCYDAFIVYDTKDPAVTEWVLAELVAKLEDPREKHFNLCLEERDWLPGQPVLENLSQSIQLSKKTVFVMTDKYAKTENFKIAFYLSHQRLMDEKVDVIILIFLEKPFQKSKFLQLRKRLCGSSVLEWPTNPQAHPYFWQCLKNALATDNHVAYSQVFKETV
How it was run: as §1

| SMILES | pIC50 (human TLR8) | pIC50 (human TLR9) | pIC50 (human TLR7) |
| --- | --- | --- | --- |
| COc1cc(-c2[nH]c3ccc(C4CCN(CC(=O)N(C)C)CC4)cc3c2C(C)C)c(C)n(C)c1=O [Example 143, 2-(4-(3-isopropyl-2-(5-methoxy-1,2-dimethyl-6-oxo-1,6-dihydropyridin-3-yl)-1H-indol-5-yl)piperidin-1-yl)-N,N-dimethylacetamide] | 7.00 | 5.57 | 6.38 |
| CNC(=O)CN1CCC(c2ccc3[nH]c(-c4cc(C#N)c(=O)n(C)c4C)c(C(C)C)c3c2)CC1 [Example 144, 2-(4-(2-(5-cyano-1,2-dimethyl-6-oxo-1,6-dihydropyridin-3-yl)-3-isopropyl-1H-indol-5-yl)piperidin-1-yl)-N-methylacetamide] | 8.33 | 4.94 | 7.22 |
| Cc1c(-c2[nH]c3ccc(C4CCN(CC(=O)N(C)C)CC4)cc3c2C(C)C)cc(C#N)c(=O)n1C [Example 145, 2-(4-(2-(5-cyano-1,2-dimethyl-6-oxo-1,6-dihydropyridin-3-yl)-3-isopropyl-1H-indol-5-yl)piperidin-1-yl)-N,N-dimethylacetamide] | 7.97 | 5.14 | 7.20 |
| CNC(=O)CN1CCC(c2ccc3[nH]c(-c4cn(C)c(=O)c(C#N)c4C)c(C(C)C)c3c2)CC1 [Example 146, 2-(4-(2-(5-cyano-1,4-dimethyl-6-oxo-1,6-dihydropyridin-3-yl)-3-isopropyl-1H-indol-5-yl)piperidin-1-yl)-N-methylacetamide] | 8.35 | 5.16 | 7.41 |
| Cc1c(-c2[nH]c3ccc(C4CCN(CC(=O)N(C)C)CC4)cc3c2C(C)C)cn(C)c(=O)c1C#N [Example 147, 2-(4-(2-(5-cyano-1,4-dimethyl-6-oxo-1,6-dihydropyridin-3-yl)-3-isopropyl-1H-indol-5-yl)piperidin-1-yl)-N,N-dimethylacetamide] | 8.32 | 5.30 | 7.25 |
| Cc1c(-c2[nH]c3ccc(C4CCN(C(C)(C)C(N)=O)CC4)cc3c2C(C)C)cn(C)c(=O)c1Cl [Example 154, 2-(4-(2-(5-chloro-1,4-dimethyl-6-oxo-1,6-dihydropyridin-3-yl)-3-isopropyl-1H-indol-5-yl)piperidin-1-yl)-2-methylpropanamide] | 7.58 | 4.86 | 8.34 |
| CCNC(=O)CN1CCC(c2ccc3[nH]c(-c4cn(C)c(=O)c(Cl)c4C)c(C(C)C)c3c2)CC1 [Example 155, 2-(4-(2-(5-chloro-1,4-dimethyl-6-oxo-1,6-dihydropyridin-3-yl)-3-isopropyl-1H-indol-5-yl)piperidin-1-yl)-N-ethylacetamide] | 7.62 | 4.67 | 8.28 |

Continued, values first:

| pIC50 (human TLR8) | pIC50 (human TLR9) | pIC50 (human TLR7) | SMILES |
| --- | --- | --- | --- |
| 6.44 | ≤ 4.30 | 6.71 | Cc1cc(-c2[nH]c3ccc(C4CCN(C(C)(C)C(=O)O)CC4)cc3c2C(C)C)cn(C)c1=O [Example 148, 2-(4-(2-(1,5-dimethyl-6-oxo-1,6-dihydropyridin-3-yl)-3-isopropyl-1H-indol-5-yl)piperidin-1-yl)-2-methylpropanoic acid] |
| 7.56 | 4.64 | 7.80 | Cc1cc(-c2[nH]c3ccc(C4CCN(C5CC(C)OC5=O)CC4)cc3c2C(C)C)cn(C)c1=O (stereo not drawn) [Example 149, 5-(3-isopropyl-5-(1-(5-methyl-2-oxotetrahydrofuran-3-yl)piperidin-4-yl)-1H-indol-2-yl)-1,3-dimethylpyridin-2(1H)-one] |
| 8.36 | 4.94 | 8.92 | Cc1cc(-c2[nH]c3ccc(C4CCN(CC(N)=O)CC4)cc3c2C(C)C)cn(C)c1=O [Example 150, 2-(4-(2-(1,5-dimethyl-6-oxo-1,6-dihydropyridin-3-yl)-3-isopropyl-1H-indol-5-yl)piperidin-1-yl)acetamide] |
| 7.86 | 4.96 | 8.92 | Cc1cc(-c2[nH]c3ccc(C4CCN(C(C)(C)C(N)=O)CC4)cc3c2C(C)C)cn(C)c1=O [Example 151, 2-(4-(2-(1,5-dimethyl-6-oxo-1,6-dihydropyridin-3-yl)-3-isopropyl-1H-indol-5-yl)piperidin-1-yl)-2-methylpropanamide] |
| 8.34 | 4.78 | 8.85 | Cc1c(-c2[nH]c3ccc(C4CCN(CC(=O)N(C)C)CC4)cc3c2C(C)C)cn(C)c(=O)c1Cl [Example 152, 2-(4-(2-(5-chloro-1,4-dimethyl-6-oxo-1,6-dihydropyridin-3-yl)-3-isopropyl-1H-indol-5-yl)piperidin-1-yl)-N,N-dimethylacetamide] |
| 7.90 | 5.10 | 8.46 | CNC(=O)CN1CCC(c2ccc3[nH]c(-c4cn(C)c(=O)c(Cl)c4C)c(C(C)C)c3c2)CC1 [Example 153, 2-(4-(2-(5-chloro-1,4-dimethyl-6-oxo-1,6-dihydropyridin-3-yl)-3-isopropyl-1H-indol-5-yl)piperidin-1-yl)-N-methylacetamide] |
